Test results as given in patent US10342792B2, “Slow-release conjugates of SN-38” (ProLynx LLC, priority 2013, dated 2019).
“And” between values parts separate entries of the source, which are not always exact repeats. Equal values may be shown once. Read-outs that look alike come from different tables or passages of the source.

Assays:
in vivo = conditions: female, Sprague-Dawley, rat
Experimental: The samples were centrifuged at approximately 1,500×g (force) for 10 minutes at 2 to 8° C. to remove red blood cells and obtain ˜150 uL plasma. The plasma was divided into 2 aliquots and transferred to cryogenic vials and stored in a freezer at −80° C. prior to analysis.
For analysis, the samples were thawed on ice and mixed with 2 volumes of acetonitrile/0.5% acetic acid containing 8 ng/mL of camptothecin as internal standard. Precipitated protein was removed by centrifugation at 16,000×g for 10 min at 4° C. Sample supernatants (20 uL) were analyzed using a Phenomenex® 300 Å Jupiter 5 um 150×4.6 mm C18 HPLC column thermostatted at 40° C. using a gradient of 100 mM sodium phosphate, 3 mM heptane sulfonate, pH 4.0 (Buffer A) and 75% acetonitrile in water (Buffer B) at 1.0 mL/min. […] Sample elution was followed with a diode array detector and a fluorescence detector with excitation set at 370 nm and the emission set at 470 nm for the first 9 min followed by emission at 534 nm for the final 10 min. Concentrations were calculated by comparison of peak areas to standard curves of the conjugate (absorbance 380 nm), and SN-38 (fluorescence Ex: 370 nm; Em: 534 nm). […]
Plasma concentration versus time data for the conjugate were analyzed using a two-phase model where C(t)=A*exp(−αt)+B*exp(−βt) where A+B=dose/Vd. […]

[1] = fold more active than irinotecan; cited from earlier work
[2] = Pharmacokinetic model prediction for human using allometric scaling; conditions: estimated by allometric scaling
[3] = cited from earlier work
[4] = ionization of the 10-OH; cited from earlier work
[5] = cited from earlier work; remark: listed apart in the source

half-life (in vivo): 15 min | kc1, elimination of free SN-38 from the plasma (in vivo): 2.77 h⁻¹ | Vss [2]: ~0.15 L/kg | kc1, elimination rate constant [2]: ~0.7 h⁻¹ | kc1 t1/2 [2]: ~60 min
Structure (SMILES): CCc1c2c(nc3ccc(O)cc13)-c1cc3c(c(=O)n1C2)COC(=O)[C@]3(O)CC [SN-38, 7-ethyl-10-hydroxycamptothecin]
activity relative to irinotecan [1]: ~1000 × | aqueous solubility ([3]; aqueous / water): 18 µM and 17 µM | aqueous solubility ([3]; in water): 7 µg/mL | pKa [4]: ~8.6 | volume of distribution Vd, reported value [5]: 0.18 L/kg
